Test results from patent publication US20110182949A1, “STABILIZED TRANSDERMAL DRUG DELIVERY SYSTEM” (priority 2008, published 2011).

Assay: Glass transition temperature (DSC)
Assay type: physicochemical
Details: amorphous drug, dispersed in patch or undispersed
Experimental: Example 1: To a glass jar Plastone 29/32 (12 g) and ethanol (7.56 g) were added. The admixture was mixed with a spatula, heated and sonicated in a water bath at 45° C. until a viscous solution was formed. To the solution was added scopolamine base (4.00 g). The admixture was mixed with a spatula, heated, sonicated and swirled until a clear viscous solution was formed. After the solution was cooled for a while, Dow Corning silicone adhesive 7-4302 (40.82 g, 60% solid) and ethyl acetate (8.34 g) were added. The material was quickly mixed at high shear to provide a cream-like uniform suspension. After air bubbles were removed by rolling overnight, the suspension was coated to a release liner, dried at room temperature for 5 minutes, in an oven set at 40° C. for 5 minutes and in an oven set at 85° C. for 5 minutes to form a thin layer of adhesive on release liner. A backing film Mediflex® 1502 was laminated to the adhesive side. Individual patches were die-cut and pouched.

Row | SMILES | glass transition temperature (Tg)
1 | CN1[C@@H]2C[C@@H](OC(=O)[C@H](CO)c3ccccc3)C[C@H]1[C@@H]1O[C@@H]12 [undispersed amorphous scopolamine, scopolamine] | about 10 °C
2 | O=C1CC[C@@]2(O)[C@H]3Cc4ccc(O)c5c4[C@@]2(CCN3CC2CC2)[C@H]1O5 [naltrexone] | 79.5 °C
